A short description of this series: Determination of biodistribution of radiolabeled compounds in rats after caudal vein administration. It is filed as in vivo, SD strain rats. As to conditions: for Biodistribution, Blood / Biodistribution, Femur and Tibia / Biodistribution, Kidney / Biodistribution, Liver / Biodistribution, Urine: SD-rats female, n = 3, caudal vein. As to the method:
SD strain rats (female, age in 8-9 weeks, n=3) were used with free access to water and food ad libitum, and anesthetized with Ravonal, (a trade name of thiopental sodium, manufactured by Tanabe Seiyaku Co., Ltd.), then the test sample solution was administered to the caudal vein. The test rats were killed by bleeding during the blood samples were taken from the abdominal aorta at each times of sampling after the administration. The organs of interest were excised. After measured the weights of these samples, the radioactivities were determined, and biodistributions were calculated. The results of determination of biodistribution relating to the labeled compounds obtained in Examples 1, 2 and 4 and the labeled compounds of methanediphosphonic acid (MDP) used as reference examples are shown in Tables 3 to 7. Determination results are indicated as %ID/g, and determination results of urine are indicated as %ID.

The mark [1] stands for this setting: 15 Minutes after administration.
[2] abbreviates: 120 Minutes after administration.

Where “and” joins values, the source holds several entries; their conditions need not be identical. Identical values can stand only once.

Turning to `O=C(NCC(P(=O)(O)O)P(=O)(O)O)c1ccccc1I`, under setting [1], the “Biodistribution, Blood” value is listed as 0.717 ± 0.159 % ID/g; the “Biodistribution, Femur and Tibia” value is reported as 3.423 ± 0.302 % ID/g; the “Biodistribution, Kidney” value is given as 2.751 ± 0.951 % ID/g; the “Biodistribution, Liver” value is given as 0.495 ± 0.078 % ID/g. Also, under setting [1], the “Biodistribution, Urine” value amounted to 19.55 ± 0.72 % ID. In addition, under setting [2], the “Biodistribution, Blood” value worked out at 0.042 ± 0.006 % ID/g; the “Biodistribution, Femur and Tibia” value is 3.714 ± 0.474 % ID/g; the “Biodistribution, Kidney” value turned out to be 1.070 ± 0.539 % ID/g; the “Biodistribution, Liver” value amounted to 0.380 ± 0.037 % ID/g. The “Biodistribution, Urine” value under setting [2] amounted to 41.54 ± 4.19 % ID. Also, the “change of accumulation level to the bone (in words)” value (SD-rats, from 15 minutes to 120 minutes after the administration) is “did not significantly vary”. Moreover, under “SD-rats, summary of Tables 3-8”, the “accumulation to the bone (in words)” value was “accumulated to the bone quickly”, the “blood clearance (in words)” value is on record as “relatively rapid” and the “urinary excretion (in words)” value is on record as “rapidly excreted into urine”.
For the compound `O=C(O)CNC(=O)CC(P(=O)(O)O)P(=O)(O)O` (99mTc complex, metal not drawn) [N-(3,3-diphosphonopropionyl)glycine], under setting [1], the “Biodistribution, Blood” value turned out to be 0.599 ± 0.103 % ID/g; the “Biodistribution, Femur and Tibia” value is on record as 3.014 ± 0.377 % ID/g; the “Biodistribution, Kidney” value stood at 3.225 ± 0.543 % ID/g; the “Biodistribution, Liver” value is reported as 0.159 ± 0.009 % ID/g. Also, the “Biodistribution, Urine” value under setting [1] was determined as 29.69 ± 0.14 % ID. Besides, under setting [2], the “Biodistribution, Blood” value came out at 0.089 ± 0.037 % ID/g; the “Biodistribution, Femur and Tibia” value is reported as 3.552 ± 0.327 % ID/g; the “Biodistribution, Kidney” value came out at 0.762 ± 0.279 % ID/g; the “Biodistribution, Liver” value is listed as 0.068 ± 0.003 % ID/g. The “Biodistribution, Urine” value under setting [2] was 48.15 ± 1.50 % ID.
Take `O=C(O)CN(CCN(CC(=O)O)CC(=O)O)CCN(CC(=O)O)CC(=O)NCC(P(=O)(O)O)P(=O)(O)O` [3,6-bis(carboxymethyl)-9-(((2,2-diphosphonoethyl)carbamoyl)m] [3,6-bis(carboxymethyl)-9-(((2,2-diphosphonoethyl)carbamoyl)methyl)-3,6,9-triazaundecanedicarboxylic acid]: under setting [1], the “Biodistribution, Blood” value is 0.519 ± 0.025 % ID/g and 0.621 ± 0.239 % ID/g and 0.463 ± 0.056 % ID/g; the “Biodistribution, Femur and Tibia” value was 2.777 ± 0.311 % ID/g and 2.417 ± 0.495 % ID/g and 2.643 ± 0.182 % ID/g; the “Biodistribution, Urine” value was 26.04 ± 9.29 % ID and 28.64 ± 5.55 % ID and 37.996 ± 5.927 % ID. Under setting [2], the “Biodistribution, Femur and Tibia” value was 2.739 ± 0.385 % ID/g and 3.089 ± 0.340 % ID/g and 2.922 ± 0.187 % ID/g; the “Biodistribution, Urine” value is 40.31 ± 9.02 % ID and 54.91 ± 1.96 % ID and 54.927 ± 4.073 % ID.

Values taken from patent publication US6607710B1, “Bisphosphonic acid derivative and compound thereof labeled with radioactive nuclide” (Nihon Medi-Physics Co., Ltd., priority 1999, dated 2003).
